14 compounds from patent US20250129070A1, “BIFUNCTIONAL ANDROGEN RECEPTOR COMPOUNDS” (priority 2023, published 2025) can be followed below.

pEC50, pIC50: −log10 of the molar value.

Test [1] has as its system AR / CBP ternary complex. Kind of test: Ternary complex formation assay (sandwich ELISA, AR capture / CBP detection) in VCaP cell lysates. Format: cell-based. Particulars: 1.5 hours treatment, sandwich ELISA (AR capture, CBP or p300 detection). The method in brief:
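Anti-AR (AR 441)-coated plates capture AR from lysates of VCaP cells grown ≥3 days at 50K/well in 5% charcoal-stripped FBS, dosed with bifunctional for 1.5 h and lysed 30 min at 4 °C. Co-captured CBP/p300 is probed with rabbit mAb and HRP anti-rabbit, then QuantaRed fluorescence (570/585) is read at 0, 5 and 15 min.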

Test [2] concerns VCaP cells. As to the kind of experiment: VCaP growth inhibition assay. In kind it is cell-based. Particulars: 30 pM R1881, 9 days, CTG. The method in brief: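 Growth read by CTG luminescence after 9-day exposure to compound (final 100 nM–10 fM, 1:5 steps) plus 30 pM R1881, in phenol red-free DMEM with 5% CSS. Cells pre-incubated 72 h before dosing; IC50 by nonlinear 4-parameter regression.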

With `COc1cc(OC2C(C)(C)C(NC(=O)c3ccc(N4CCN(CCc5ccc(-c6cc7cccc(-c8nn(C9CCOCC9)c9c8CN(C(C)=O)CC9)c7cn6)cn5)CC4)cc3)C2(C)C)ccc1C#N` (stereo not shown) [Compound 250, 4-[4-[2-[5-[8-(5-acetyl-1-tetrahydropyran-4-yl-6,7-dihydro-4H-pyrazolo[4,3-c]pyridin-3-yl)-3-isoquinolyl]-2-pyridyl]ethyl]piperazin-1-yl]-N-[3-(4-cyano-3-methoxy-phenoxy)-2,2,4,4-tetramethyl-cyclobutyl]benzamide], in test [1], the pEC50 was above 9.00. In addition, in test [2], the pIC50 was at least 10.00.
In test [1], `COc1cc(OC2C(C)(C)C(NC(=O)c3ccc(N4CCC(CCn5cc(-c6cc7cccc(-c8nn(C9CCOCC9)c9c8CN(C(C)=O)CC9)c7cn6)cn5)CC4)cc3)C2(C)C)ccc1C#N` (stereo not shown) [Compound 244, 4-[4-[2-[4-[8-(5-acetyl-1-tetrahydropyran-4-yl-6,7-dihydro-4H-pyrazolo[4,3-c]pyridin-3-yl)-3-isoquinolyl]pyrazol-1-yl]ethyl]-1-piperidyl]-N-[3-(4-cyano-3-methoxy-phenoxy)-2,2,4,4-tetramethyl-cyclobutyl]benzamide] showed a negative logarithm of the EC50 (pEC50) of 8.00 to 9.00. The same compound had a negative-log IC50 (pIC50) in test [2] of 9.00 to 10.00.
The like results for `CC(=O)N1CCc2c(c(N3CCCc4cc(-c5cnn(C)c5)c(C(F)F)cc43)nn2C2CCN(CCOC3CCN(c4ncc(C(=O)NC5C(C)(C)C(Oc6ccc(C#N)c(Cl)c6)C5(C)C)cn4)CC3)CC2)C1` (stereo not shown) [Compound 170, 2-[4-[2-[4-[5-acetyl-3-[7-(difluoromethyl)-6-(1-methylpyrazol-4-yl)-3,4-dihydro-2H-quinolin-1-yl]-6,7-dihydro-4H-pyrazolo[4,3-c]pyridin-1-yl]-1-piperidyl]ethoxy]-1-piperidyl]-N-[3-(3-chloro-4-cyano-phenoxy)-2,2,4,4-tetramethyl-cyclobutyl]pyrimidine-5-carboxamide] were, in that order, above 9.00 and 9.00 to 10.00.
In test [1], `COc1cc(OC2C(C)(C)C(NC(=O)c3ccc(N4CCC(N5CCC6(CC5)CC(n5nc(N7CCCc8cc(-c9cnn(C)c9)c(C(F)F)cc87)c7c5CCN(C(C)=O)C7)C6)CC4)cc3)C2(C)C)ccc1C#N` (stereo not shown) [Compound 374, 4-[4-[2-[5-acetyl-3-[7-(difluoromethyl)-6-(1-methylpyrazol-4-yl)-3,4-dihydro-2H-quinolin-1-yl]-6,7-dihydro-4H-pyrazolo[4,3-c]pyridin-1-yl]-7-azaspiro[3.5]nonan-7-yl]-1-piperidyl]-N-[3-(4-cyano-3-methoxy-phenoxy)-2,2,4,4-tetramethyl-cyclobutyl]benzamide] gave a negative logarithm of the EC50 (pEC50) above 9.00. The compound also showed a pIC50 in test [2] of 9.00 to 10.00.
The like results for `CC(=O)N1CCc2c(c(N3CCCc4cc(-c5cnn(C)c5)c(C(F)F)cc43)nn2C2CCN(C(C)CC3CCN(c4ncc(C(=O)NC5C(C)(C)C(Oc6ccc(C#N)c(Cl)c6)C5(C)C)cn4)CC3)CC2)C1` (stereo not shown) [Compound 171, 2-[4-[2-[4-[5-acetyl-3-[7-(difluoromethyl)-6-(1-methylpyrazol-4-yl)-3,4-dihydro-2H-quinolin-1-yl]-6,7-dihydro-4H-pyrazolo[4,3-c]pyridin-1-yl]-1-piperidyl]propyl]-1-piperidyl]-N-[3-(3-chloro-4-cyano-phenoxy)-2,2,4,4-tetramethyl-cyclobutyl]pyrimidine-5-carboxamide] were, in that order, above 9.00 and at least 10.00.
As for `Cn1c(=O)sc2ccc(N3CCCc4cc(-c5ccc(CCC6CCN(c7ncc(C(=O)NC8C(C)(C)C(Oc9ccc(C#N)c(Cl)c9)C8(C)C)cn7)CC6)nc5)c(C(F)F)cc43)cc21` (stereo not shown) [Compound 236, N-[3-(3-chloro-4-cyano-phenoxy)-2,2,4,4-tetramethyl-cyclobutyl]-2-[4-[2-[5-[7-(difluoromethyl)-1-(3-methyl-2-oxo-1,3-benzothiazol-5-yl)-3,4-dihydro-2H-quinolin-6-yl]-2-pyridyl]ethyl]-1-piperidyl]pyrimidine-5-carboxamide], the negative-log EC50 (pEC50) in test [1] was below 7.00. Also, in test [2], the pIC50 is below 7.00.
In the case of `COc1cc(OC2C(C)(C)C(NC(=O)c3ccc(N4CCN(CC5CCC(n6nc(N7CCCc8cc(-c9cnn(C)c9)c(C(F)F)cc87)c7c6CCN(C(C)=O)C7)CC5)CC4)cc3)C2(C)C)ccc1C#N` (stereo not shown) [Compound 319, 4-[4-[[4-[5-acetyl-3-[7-(difluoromethyl)-6-(1-methylpyrazol-4-yl)-3,4-dihydro-2H-quinolin-1-yl]-6,7-dihydro-4H-pyrazolo[4,3-c]pyridin-1-yl]cyclohexyl]methyl]piperazin-1-yl]-N-[3-(4-cyano-3-methoxy-phenoxy)-2,2,4,4-tetramethyl-cyclobutyl]benzamide], the pEC50 in test [1] is above 9.00. Further, the negative logarithm of the IC50 (pIC50) in test [2] is at least 10.00.
The like results for `CC(=O)N1CCc2c(c(N3CCCc4cc(C#N)c(C(F)F)cc43)nn2C2CCN(CC3C(C)CN(c4ncc(C(=O)NC5C(C)(C)C(Oc6ccc(C#N)c(Cl)c6)C5(C)C)cn4)CC3C)CC2)C1` (stereo not shown) [Compound 458, 2-[4-[[4-[5-acetyl-3-[6-cyano-7-(difluoromethyl)-3,4-dihydro-2H-quinolin-1-yl]-6,7-dihydro-4H-pyrazolo[4,3-c]pyridin-1-yl]-1-piperidyl]methyl]-3,5-dimethyl-1-piperidyl]-N-[3-(3-chloro-4-cyano-phenoxy)-2,2,4,4-tetramethyl-cyclobutyl]pyrimidine-5-carboxamide] were, in that order, above 9.00 and 9.00 to 10.00.
The corresponding values for `CC(=O)N1CCc2c(c(N3CCCc4cc(-c5cnn(C)c5)c(C(F)F)cc43)nn2C2CCC(CN3CCN(c4ncc(C(=O)NC5C(C)(C)C(Oc6ccc(C#N)c(Cl)c6)C5(C)C)cn4)CC3)CC2)C1` (stereo not shown) [Compound 320, 2-[4-[[4-[5-acetyl-3-[7-(difluoromethyl)-6-(1-methylpyrazol-4-yl)-3,4-dihydro-2H-quinolin-1-yl]-6,7-dihydro-4H-pyrazolo[4,3-c]pyridin-1-yl]cyclohexyl]methyl]piperazin-1-yl]-N-[3-(3-chloro-4-cyano-phenoxy)-2,2,4,4-tetramethyl-cyclobutyl]pyrimidine-5-carboxamide] are above 9.00 and 9.00 to 10.00.
Compound `CC(=O)N1CCc2c(c(N3CCCc4cc(-c5cnn(C)c5)c(C(F)F)cc43)nn2C2CCN(C(=O)C3CCN(c4ccc(C(=O)NC5C(C)(C)C(Oc6ccc(C#N)c(Cl)c6)C5(C)C)nn4)CC3)CC2)C1` (stereo not shown) [Compound 114, 6-[4-[4-[5-acetyl-3-[7-(difluoromethyl)-6-(1-methylpyrazol-4-yl)-3,4-dihydro-2H-quinolin-1-yl]-6,7-dihydro-4H-pyrazolo[4,3-c]pyridin-1-yl]piperidine-1-carbonyl]-1-piperidyl]-N-[3-(3-chloro-4-cyano-phenoxy)-2,2,4,4-tetramethyl-cyclobutyl]pyridazine-3-carboxamide] gave a pEC50 in test [1] above 9.00. Besides, the negative logarithm of the IC50 (pIC50) in test [2] is at least 10.00.
The corresponding values for `CC(=O)N1CCc2c(c(N3CCCc4ccccc43)nn2C2CCN(C(=O)C3CCN(c4ncc(C(=O)NC5C(C)(C)C(Oc6ccc(C#N)c(Cl)c6)C5(C)C)cn4)CC3)CC2)C1` (stereo not shown) [Compound 129, 2-[4-[4-[5-acetyl-3-(3,4-dihydro-2H-quinolin-1-yl)-6,7-dihydro-4H-pyrazolo[4,3-c]pyridin-1-yl]piperidine-1-carbonyl]-1-piperidyl]-N-[3-(3-chloro-4-cyano-phenoxy)-2,2,4,4-tetramethyl-cyclobutyl]pyrimidine-5-carboxamide] are above 9.00 and at least 10.00.
The corresponding values for `CC(=O)N1CCc2c(c(N3CCCc4cc(-c5cnn(C)c5)c(C(F)F)cc43)nn2C2CC3(C2)CN(CC2CC4(C2)CN(c2ncc(C(=O)NC5C(C)(C)C(Oc6ccc(C#N)c(Cl)c6)C5(C)C)cn2)C4)C3)C1` (stereo not shown) [Compound 216, 2-[6-[[6-[5-acetyl-3-[7-(difluoromethyl)-6-(1-methylpyrazol-4-yl)-3,4-dihydro-2H-quinolin-1-yl]-6,7-dihydro-4H-pyrazolo[4,3-c]pyridin-1-yl]-2-azaspiro[3.3]heptan-2-yl]methyl]-2-azaspiro[3.3]heptan-2-yl]-N-[3-(3-chloro-4-cyano-phenoxy)-2,2,4,4-tetramethyl-cyclobutyl]pyrimidine-5-carboxamide] are above 9.00 and at least 10.00.
The corresponding values for `COc1cc(OC2C(C)(C)C(NC(=O)c3ccc(N4CCC(N5CC6(CCC(n7nc(N8CCCc9cc(-c%10cnn(C)c%10)c(C(F)F)cc98)c8c7CCN(C(C)=O)C8)CC6)C5)CC4)cc3)C2(C)C)ccc1C#N` (stereo not shown) [Compound 372, 4-[4-[7-[5-acetyl-3-[7-(difluoromethyl)-6-(1-methylpyrazol-4-yl)-3,4-dihydro-2H-quinolin-1-yl]-6,7-dihydro-4H-pyrazolo[4,3-c]pyridin-1-yl]-2-azaspiro[3.5]nonan-2-yl]-1-piperidyl]-N-[3-(4-cyano-3-methoxy-phenoxy)-2,2,4,4-tetramethyl-cyclobutyl]benzamide] are above 9.00 and at least 10.00.
The compound `CN1C(=O)CCc2cc(N3CCCc4cc(-c5ccc(CCC6CCN(c7ncc(C(=O)NC8C(C)(C)C(Oc9ccc(C#N)c(Cl)c9)C8(C)C)cn7)CC6)nc5)c(C(F)F)cc43)ccc21` (stereo not shown) [Compound 239, N-[3-(3-chloro-4-cyano-phenoxy)-2,2,4,4-tetramethyl-cyclobutyl]-2-[4-[2-[5-[7-(difluoromethyl)-1-(1-methyl-2-oxo-3,4-dihydroquinolin-6-yl)-3,4-dihydro-2H-quinolin-6-yl]-2-pyridyl]ethyl]-1-piperidyl]pyrimidine-5-carboxamide] had a negative logarithm of the EC50 (pEC50) in test [1] above 9.00. Moreover, in test [2], the negative-log IC50 (pIC50) was 7.00 to 9.00.
